Experimental data from US20120107836A1, “DEVELOPMENT OF FLUORESCENTLY P-LOOP LABELLED KINASES FOR SCREENING OF INHIBITORS” (priority 2009, published 2012).

Columns and labels:
p38α = target: T1, p38α (Homo sapiens, UniProt Q16539, C119S/C162S/F327L/Y35C); test: Endpoint fluorescence binding measurements with acrylodan-labelled p38α (glycine-rich loop / P-loop labelled, Y35C); conditions: fluorescence response of acrylodan-labelled p38α
T1 construct: His-tag (N, cleaved yes); made in house; host or cells: E. coli BL21(DE3)
Excerpt: For acrylodan-labelled p38α, ratiometric fluorescence values (R=Iλ512/Iλ475) enabled reliable binding curves of detected compounds to be plotted, allowing for direct determination of the Kd of ligand binding. It should be noted that binding modes of detected molecules can initially be assessed in HTS formats by measuring plates from primary and/or secondary screens at different time points. Compounds that change the maximum ratiometric signal or Kd over time are likely to be Type II/III inhibitors. Alternatively, kinetics of the association (kon) and dissociation (koff) of selected compounds can be determined using cuvettes. To determine kon, a mini stir bar was placed in the bottom of each cuvette to ensure rapid mixing as inhibitor was delivered through the injection port located above the cuvette. […] Nearly instantaneous binding kinetics (<5 s) are characteristic of Type I inhibitors, while slower kinetics (>10 s) indicate the slower binding of Type II or Type III inhibitors to the DFG-out conformation. Following binding, koff was determined by adding a 10-fold excess of unlabelled kinase to shift the binding equilibrium away from the labelled kinase. Addition of excess unlabelled kinase causes the inhibitor to redistribute and dissociate from acrylodan-labelled p38α, resulting in a recovery of the fluorescence signal.

MKK7 = target: T2, MKK7 (Homo sapiens, UniProt O14733, C202S/C260S/C280S); test: Real-time and endpoint fluorescence measurements with glycine-rich loop acrylodan-labelled MKK7 kinase domain; format: binding
T2 sequence (O14733 101-408 C202S/C260S/C280S): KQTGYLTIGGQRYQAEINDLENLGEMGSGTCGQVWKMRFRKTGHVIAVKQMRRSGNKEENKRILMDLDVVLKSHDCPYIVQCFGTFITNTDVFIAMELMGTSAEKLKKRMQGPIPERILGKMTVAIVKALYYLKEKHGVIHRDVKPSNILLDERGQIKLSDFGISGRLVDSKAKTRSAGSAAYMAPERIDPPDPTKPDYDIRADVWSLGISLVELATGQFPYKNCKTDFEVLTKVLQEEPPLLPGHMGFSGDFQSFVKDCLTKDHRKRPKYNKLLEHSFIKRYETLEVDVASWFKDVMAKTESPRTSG
Procedure: FIG. 8. Real-time and endpoint fluorescence measurements of a Type II and Type I ligands using glycine-rich loop labelled MKK7. […] Real-time kinetic measurements and detection of binding and dissociation of K252a.
Therefore, the Kd of a Type I inhibitor (K252a) to P-loop labelled MKK7 was measured. […] FIG. 8C highlights the real-time kinetic measurements and detection of binding and dissociation of K252a.

T1 sequence (Q16539 whole entry Y35C/C119S/C162S/F327L): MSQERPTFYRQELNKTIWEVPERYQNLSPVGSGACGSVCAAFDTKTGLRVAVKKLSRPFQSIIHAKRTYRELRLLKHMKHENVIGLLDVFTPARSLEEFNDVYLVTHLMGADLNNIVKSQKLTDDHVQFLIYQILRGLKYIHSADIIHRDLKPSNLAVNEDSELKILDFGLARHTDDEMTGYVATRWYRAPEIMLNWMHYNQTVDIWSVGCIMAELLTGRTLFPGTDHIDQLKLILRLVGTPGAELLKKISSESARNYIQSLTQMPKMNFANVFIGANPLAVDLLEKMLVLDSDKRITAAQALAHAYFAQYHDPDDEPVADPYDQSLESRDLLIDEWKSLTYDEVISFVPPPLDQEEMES

NC(=O)c1c(OCc2c(F)cc(Br)cc2F)nsc1NC(=O)NCCCCN1CCCC1 [CP547632]
detection of ligand binding by the P-loop labelled p38α assay (p38α): detected

COC(=O)[C@@]1(O)C[C@H]2O[C@]1(C)n1c3ccccc3c3c4c(c5c6ccccc6n2c5c31)C(=O)NC4 [K252a]
Kd (MKK7): 38 nM | kinetics of binding and dissociation (MKK7; real-time measurements, P-loop labelled MKK7): fast

CNC(=O)c1cc(Oc2ccc(NC(=O)Nc3ccc(Cl)c(C(F)(F)F)c3)cc2)ccn1 [sorafenib]
detection of ligand binding by P-loop labelled MKK7 (MKK7; negative controls, up to 10 μM): not detected up to 10 uM
